Measurements as given in US20260078103A1, “ISOQUINOLONES AS PI3K INHIBITORS” (OnKure, Inc., priority 2022, published 2026).
Where two headings read alike, the source gives them in different places.

Columns and labels:
Assay type in all cases: cell-based
[1] = test system: T47D cells expressing mutant PI3Ka (H1047R); assay: In vitro cell proliferation, T47D cells (CellTiter-Glo); conditions: inhibition of proliferation, read-out: Avg T-47D EC50
Description: (§1) In Vitro Cell Proliferation: Determination of EC50 Values for Inhibition of Proliferation in T47D Cells Expressing Mutant PI3Ka (H1047R) Mutation and SKBR3 Cells Express WT PI3Ka.
(§2) T47D or SKBR3 cells were trypsinized, resuspended in culture media and seeded onto assay ready plates. T47D culture media consisted of RPMI, 10% FBS and Insulin (0.2 units/mL). SKBR3 culture media consisted of McCoys 5a and 10% FBS. Cells were seeded at a density of 1,500 cells/well and dispensed in 50 μl onto 384 well assay ready plates (Corning, 89089-790). Assay ready plates had previously been stamped with 10-point dilutions of compounds of interest, as well as controls. The Echo655 is used to stamp plates at 40 nL of compound or DMSO. Cells were grown for 72 hours at 37° Celsius and 5% CO2. After 72 hours, cells were equilibrated at room temperature for 15 minutes. 30 μL of CellTiter-Glo reagent is added to the plate, which is then shaken for 30 minutes at temperature at 300-500 rpm. Cells are then read on an Envision plate reader. The percentage of inhibition of proliferation was calculated using the following formula: % Inhibition=100×(LumD−Lumsample)/(LumD−Lumlnh), where D is obtained from cells treated with 0.1% DMSO only; lnh is obtained from cells treated with 10 uM Alpelisib. The effective concentration achieving 50% inhibition of proliferation (EC50) is calculated by fitting the Curve using Xlfit (v5.3.1.3), equation 201: Y=Bottom+(Top−Bottom)/(1+10^((LogEC50−X)*HillSlope)).

[2] = test system: SKBR3 cells express WT PI3Ka; assay: In vitro cell proliferation, SKBR3 cells (CellTiter-Glo); conditions: inhibition of proliferation
Description: as §1, §2

[3] = test system: phosphorylation of AKT (pAKT) in T47D cells expressing mutant PI3Ka (H1047R); assay: In vitro cell pAKT (Ser473) HTRF, T47D cells; conditions: cellular pAKT, T47D cells, mutant PI3Ka (H1047R), 6 hours, read-out: Avg T-47D IC50
Description: (§3) In Vitro Cell pAKT: Determination of IC50 Values for Inhibition of Phosphorylation of AKT (pAKT) in T47D Cells Expressing Mutant PI3Ka (H1047R) Mutation and SKBR3 Cells Express WT PI3Ka.
(§4) T47D or SKBR3 cells were trypsinized, resuspended in culture media and seeded onto assay ready plates. T47D culture media consisted of RPMI, 10% FBS and Insulin (0.2 units/mL). SKBR3 culture media consisted of McCoy's 5a and 10% FBS. Cells were seeded at a density of 5000 cells/well and dispensed in 12.5 μL onto 384 well assay ready plates (Perkin Elmer, 6008238)). Assay ready plates had previously been stamped with 10-point dilutions of compounds of interest, as well as controls. The Echo655 is used to stamp plates at 12.5 nL of compound or DMSO. Cells were grown for 6 hours at 37° Celsius and 5% CO2. After 6 hours, 4 μL of Lysis buffer reagent was added to the plate, which was then centrifuged for 1 minute at 1000 rpm. Then the plate was incubated at room temperature for 30 minutes. After 30 minutes, 4 μL of antibody mix containing Eu Cryptate, d2 Cryptate, and detection buffer, was added to the plate. The plate was centrifuged for 1 minute at 1000 rpm and then incubated overnight at room temperature. The plate was read on an Envision plate reader using the HTRF protocol. The percentage of inhibition of AKT phosphorylation was calculated using the following formula: % Inhibition=100×(pAKTHC−pAKTSample)/(pAKTHC−pAKTLC)), where pAKTHC is obtained from cells treated with 0.1% DMSO only; PAKTLC is obtained from cells treated with 10 uM Alpelisib. The IC50 (concentration achieving 50% inhibition of pAKT) is calculated by fitting the Curve using XIfit (v5.3.1.3), equation 201: Y=Bottom+(Top−Bottom)/(1+10^((LogIC50−X)*HillSlope)).

[4] = test system: phosphorylation of AKT (pAKT) in SKBR3 cells express WT PI3Ka; assay: In vitro cell pAKT (Ser473) HTRF, SKBR3 cells; conditions: cellular pAKT
Description: as §3, §4

Row | SMILES | EC50 ([1]; 72 hours) | EC50 ([2]; Homo sapiens, SK-BR-3, 72 h) | IC50 [3] | IC50 ([4]; Homo sapiens, SK-BR-3, 6 h) | EC50 ([2]; 72 hours) | IC50 ([4]; 6 hours) | EC50 ([1]; Homo sapiens, T47D, 72 h) | IC50 ([3]; Homo sapiens, T47D, 6 h)
1 | Cc1cc(C(C)Nc2ccccc2C(=O)O)c2cc(N3Cc4cccc(C(F)(F)F)c4C3)n(C)c(=O)c2c1 (single isomer, unassigned) [Example 92] | 0.5 to 2 µM | > 15 µM | 0.001 to 0.5 µM | > 15 µM |  |  |  | 
2 | Cc1cc(C(C)Nc2ccccc2C(=O)O)c2cc(N3Cc4cccc(C(F)(F)F)c4C3)n(C)c(=O)c2c1 (single isomer, unassigned) [Example 93] | 2 to 15 µM |  | > 15 µM |  | > 15 µM | > 15 µM |  | 
3 | Cc1cc(C(C)Nc2ccccc2C(=O)O)c2cc(N3CCC4(CCN(CC(F)(F)F)C4)CC3)n(C)c(=O)c2c1 (single isomer, unassigned) [Example 96] | 0.001 to 0.5 µM |  | 0.001 to 0.5 µM | > 15 µM | 2 to 15 µM |  |  | 
4 | Cc1cc(C(C)Nc2ccccc2C(=O)O)c2cc(N3CCC4(CCN(CC(F)(F)F)C4)CC3)n(C)c(=O)c2c1 (single isomer, unassigned) [Example 97] | 2 to 15 µM |  | 2 to 15 µM |  | > 15 µM | > 15 µM |  | 
5 | Cc1cc(C(C)Nc2ccccc2C(=O)O)c2cc(N3Cc4cc(F)cc(F)c4C3)n(C)c(=O)c2c1 (single isomer, unassigned) [Example 102] | 2 to 15 µM | > 15 µM | > 15 µM | > 15 µM |  |  |  | 
6 | Cc1cc(C(C)Nc2ccccc2C(=O)O)c2cc(N3Cc4cc(F)cc(F)c4C3)n(C)c(=O)c2c1 (single isomer, unassigned) [Example 103] | 0.001 to 0.5 µM |  | 0.001 to 0.5 µM |  | > 15 µM | > 15 µM |  | 
7 | Cc1cc(C(C)Nc2ccccc2C(=O)O)c2cc(N3CCC(c4ccccc4)C3)n(C)c(=O)c2c1 (single isomer, unassigned) [Example 104] | 2 to 15 µM |  | > 15 µM | > 15 µM | 2 to 15 µM |  |  | 
8 | Cc1cc(C(C)Nc2ccccc2C(=O)O)c2cc(N3CCC(c4ccccc4)C3)n(C)c(=O)c2c1 (single isomer, unassigned) [Example 105] | 0.5 to 2 µM |  | 0.001 to 0.5 µM |  | > 15 µM | > 15 µM |  | 
9 | Cc1cc(C(C)Nc2ccccc2C(=O)O)c2cc(N3Cc4ccncc4C3)n(C)c(=O)c2c1 (single isomer, unassigned) [Example 106] | 2 to 15 µM | > 15 µM | > 15 µM | > 15 µM |  |  |  | 
10 | Cc1cc(C(C)Nc2ccccc2C(=O)O)c2cc(N3Cc4ccncc4C3)n(C)c(=O)c2c1 (single isomer, unassigned) [Example 107] | 0.001 to 0.5 µM |  | 0.001 to 0.5 µM |  | > 15 µM | > 15 µM |  | 
11 | Cc1cc(C(C)Nc2ccccc2C(=O)O)c2cc(N3CCC4(CCN(CC(F)(F)F)CC4)CC3)n(C)c(=O)c2c1 (single isomer, unassigned) [Example 110] | 2 to 15 µM |  | > 15 µM |  | 2 to 15 µM | > 15 µM |  | 
12 | Cc1cc(C(C)Nc2ccccc2C(=O)O)c2cc(N3CCC4(CCN(CC(F)(F)F)CC4)CC3)n(C)c(=O)c2c1 (single isomer, unassigned) [Example 111] | 0.001 to 0.5 µM |  | 0.001 to 0.5 µM |  | 2 to 15 µM | 2 to 15 µM |  | 
13 | COCCC(=O)N1CCN(c2cc3c(C(C)Nc4ccccc4C(=O)O)cc(C)cc3c(=O)n2C)CC1 (single isomer, unassigned) [Example 112] | 2 to 15 µM |  | > 15 µM | > 15 µM | > 15 µM |  |  | 
14 | COCCC(=O)N1CCN(c2cc3c(C(C)Nc4ccccc4C(=O)O)cc(C)cc3c(=O)n2C)CC1 (single isomer, unassigned) [Example 113] | 0.001 to 0.5 µM |  | 0.5 to 2 µM |  | 2 to 15 µM | > 15 µM |  | 
15 | COc1cccc(C#Cc2cc3c(C(C)Nc4ccccc4C(=O)O)cc(C)cc3c(=O)n2C)c1 (single isomer, unassigned) [Example 125] | 2 to 15 µM |  | > 15 µM |  | > 15 µM | > 15 µM |  | 
16 | COc1cccc(C#Cc2cc3c(C(C)Nc4ccccc4C(=O)O)cc(C)cc3c(=O)n2C)c1 (single isomer, unassigned) [Example 126] | 0.001 to 0.5 µM |  | 0.001 to 0.5 µM |  | > 15 µM | > 15 µM |  | 
17 | Cc1cc(C(C)Nc2ccc(Cl)nc2C(=O)O)c2cc(N3Cc4ccc(F)cc4C3)n(C)c(=O)c2c1 (single isomer, unassigned) [Example 127] | 2 to 15 µM |  | > 15 µM |  | > 15 µM | > 15 µM |  | 

Results, then the compound that gave them:

Row | EC50 ([1]; 72 hours) | EC50 ([2]; Homo sapiens, SK-BR-3, 72 h) | IC50 [3] | IC50 ([4]; Homo sapiens, SK-BR-3, 6 h) | EC50 ([2]; 72 hours) | IC50 ([4]; 6 hours) | EC50 ([1]; Homo sapiens, T47D, 72 h) | IC50 ([3]; Homo sapiens, T47D, 6 h) | SMILES
18 | 0.001 to 0.5 µM | > 15 µM | 0.001 to 0.5 µM | > 15 µM |  |  |  |  | Cc1cc(C(C)Nc2ccccc2C(=O)O)c2cc(N3C[C@@H]4CCCC[C@H]4C3)n(C)c(=O)c2c1 (single isomer, unassigned) [Example 100]
19 |  | > 15 µM |  | > 15 µM |  |  | > 15 µM | > 15 µM | Cc1cc(C(C)Nc2ccccc2C(=O)O)c2cc(N3C[C@H]4CCCC[C@@H]4C3)n(C)c(=O)c2c1 (single isomer, unassigned) [Example 101]
20 | 2 to 15 µM |  | > 15 µM |  | > 15 µM | > 15 µM |  |  | Cc1cc(C(C)Nc2ccccc2C(=O)O)c2cc(N3C[C@@H]4CN(CC(F)(F)F)C[C@H]4C3)n(C)c(=O)c2c1 (single isomer, unassigned) [Example 108]
21 | 0.001 to 0.5 µM |  | 0.001 to 0.5 µM |  | 2 to 15 µM | > 15 µM |  |  | Cc1cc(C(C)Nc2ccccc2C(=O)O)c2cc(N3C[C@@H]4CN(CC(F)(F)F)C[C@H]4C3)n(C)c(=O)c2c1 (single isomer, unassigned) [Example 109]
22 | > 15 µM |  | > 15 µM |  | > 15 µM | > 15 µM |  |  | Cc1cc(C(C)Nc2ccccc2C(=O)O)c2cc(N3C[C@@H]4CCCC[C@H]4C3)n(C)c(=O)c2c1 (single isomer, unassigned) [Example 114]
23 | 0.001 to 0.5 µM |  | > 15 µM |  | > 15 µM | > 15 µM |  |  | Cc1cc(C(C)Nc2ccccc2C(=O)O)c2cc(N3C[C@H]4CCCC[C@@H]4C3)n(C)c(=O)c2c1 (single isomer, unassigned) [Example 115]
24 | 0.5 to 2 µM |  | 0.001 to 0.5 µM |  | > 15 µM | > 15 µM |  |  | Cc1cc(C(C)Nc2ccccc2C(=O)O)c2cc(N3CCN4CC(F)(F)CC4C3)n(C)c(=O)c2c1 (single isomer, unassigned) [Example 121]
25 | 2 to 15 µM |  | > 15 µM |  | > 15 µM | > 15 µM |  |  | Cc1cc(C(C)Nc2ccccc2C(=O)O)c2cc(N3CCN4CC(F)(F)CC4C3)n(C)c(=O)c2c1 (single isomer, unassigned) [Example 122]
26 | > 15 µM |  | > 15 µM |  | > 15 µM | > 15 µM |  |  | Cc1cc(C(C)Nc2ccccc2C(=O)O)c2cc(N3CCN4C(=O)CCC4C3)n(C)c(=O)c2c1 (single isomer, unassigned) [Example 123]
27 | 0.5 to 2 µM |  | 2 to 15 µM |  | > 15 µM | > 15 µM |  |  | Cc1cc(C(C)Nc2ccccc2C(=O)O)c2cc(N3CCN4C(=O)CCC4C3)n(C)c(=O)c2c1 (single isomer, unassigned) [Example 124]
